Patent US4348393A, “N-Aryl oxazolidinones, oxazolidinethiones, pyrrolidinones, pyrrolidines and thiazolidinones” (Delalande S.A., priority 1978, dated 1982)
Where two headings read alike, the source gives them in different places.

Experiments:
[1] = test system: generalized trembling caused by dl-5-hydroxytryptophane; assay: Test A: potentiation in mice of generalized trembling caused by dl-5-hydroxytryptophane; type: in vivo; settings: Mus musculus, po, read-out: Test A ED 50
Method: Test A: Potentiation in mice of generalized trembling caused by an interperitoneal injection (200 mg/kg) of dl-5-hydroxytryptophane, following the protocol described by C. GOURET and G. RAYNAUD in J. Pharmacol. (Paris), (1974), 5, 231.

[2] = test system: ptosis observed one hour after reserpine; assay: Test B: antagonism of reserpine-induced ptosis in mice; type: in vivo; settings: Mus musculus, 1 h, po, antagonism of ptosis one hour after reserpine 2 mg/kg intravenous, read-out: Test B ED 50
Method: Test B: Antagonism with respect to the ptosis observed one hour after an intravenous injection (2 mg/kg) of reserpine given to mice, following the protocol described by C.

[3] = mice, potentiation of trembling by dl-5-hydroxytryptophane 200 mg/kg interperitoneal

Compound: COCC1CN(c2ccc(OCc3ccc(Cl)c(Cl)c3)cc2)C(=O)O1 (stereo not drawn) [compound 164]
- ED50 [1, 3]: 3.4 mg/kg
- ED50 [2]: 3.4 mg/kg

Compound: CCCCCCCCC(=O)OCC1CN(c2ccc(OCC3CCCC3)cc2)C(=O)O1 (stereo not drawn) [compound 19]
- ED50 [1, 3]: 5.5 mg/kg
- ED50 [2]: 3.5 mg/kg

Compound: CC(=O)OCC1CN(c2ccc(OCC#N)cc2)C(=O)O1 (stereo not drawn) [compound 1]
- ED50 [1, 3]: 12.5 mg/kg
- ED50 [2]: 6.2 mg/kg

Compound: CN(C)CC1CN(c2ccc(OCc3cccc([N+](=O)[O-])c3)cc2)C(=O)O1 (stereo not drawn) [compound 86]
- ED50 [1]: 4.5 mg/kg
- ED50 [2]: 4.8 mg/kg

Compound: CC(C)(C)C(=O)OCC1CN(c2ccc(OCc3ccccc3)cc2)C(=O)O1 (stereo not drawn) [compound 27]
- ED50 [1, 3]: 25 mg/kg
- ED50 [2]: 44 mg/kg

Compound: CNCC1CN(c2ccc(OCc3cccc(Cl)c3)cc2)C(=O)O1 (stereo not drawn) [compound 83]
- ED50 [1, 3]: 12.5 mg/kg
- ED50 [2]: 6.2 mg/kg

Compound: NCC1CN(c2ccc(OCc3ccccc3)cc2)C(=O)O1 (stereo not drawn) [compound 80]
- ED50 [1, 3]: 20 mg/kg
- ED50 [2]: 25 mg/kg

Compound: CC(C)C(=O)OCC1CN(c2ccc(OCC3CCCCC3)cc2)C(=O)O1 (stereo not drawn) [compound 103]
- ED50 [1, 3]: 5 mg/kg
- ED50 [2]: 6 mg/kg

Compound: CC(C)CCOc1ccc(N2CC(COC(=O)C(C)C)OC2=O)cc1 (stereo not drawn) [compound 127]
- ED50 [1, 3]: 5 mg/kg
- ED50 [2]: 4.3 mg/kg

Compound: O=C1OC(COC2CCCCC2)CN1c1ccc(OCC2CCCC2)cc1 (stereo not drawn) [compound 51]
- ED50 [1, 3]: 27 mg/kg
- ED50 [2]: 50 mg/kg

Compound: OCC1CN(c2ccc(OCc3ccc(F)cc3)cc2)C(=S)O1 (stereo not drawn) [compound 96]
- ED50 [1, 3]: 4.7 mg/kg
- ED50 [2]: 3.6 mg/kg

Compound: Cc1cccc(N2CC(CO)OC2=O)c1 (stereo not drawn) [TOLOXATONE, reference compound]
- ED50 [1, 3]: 60 mg/kg
- ED50 [2]: 50 mg/kg

Compound: CC(=O)OCC1CN(c2ccc(OCc3cccc(F)c3)cc2)C(=O)O1 (stereo not drawn) [compound 130]
- ED50 [1, 3]: 6.2 mg/kg
- ED50 [2]: 9.6 mg/kg

Compound: CC(C)OCC1CN(c2ccc(OCc3ccccc3)cc2)C(=O)O1 (stereo not drawn) [compound 58]
- ED50 [1, 3]: 50 mg/kg
- ED50 [2]: 8.8 mg/kg

Compound: CCC(=O)OCC1CN(c2ccc(OCC3CCCC3)cc2)C(=O)O1 (stereo not drawn) [compound 14]
- ED50 [1, 3]: 2 mg/kg
- ED50 [2]: 3.1 mg/kg

Compound: O=C(OCC1CN(c2ccc(OCc3cccc([N+](=O)[O-])c3)cc2)C(=O)O1)c1ccccc1 (stereo not drawn) [compound 43]
- ED50 [1, 3]: 15 mg/kg
- ED50 [2]: 17.5 mg/kg

Compound: CC(C)OCC1CN(c2ccc(OCC3CCCC3)cc2)C(=O)O1 (stereo not drawn) [compound 50]
- ED50 [1, 3]: 17.5 mg/kg
- ED50 [2]: 15 mg/kg

Compound: OCC1CN(c2ccc(OCc3cccc(C(F)(F)F)c3)cc2)C(=S)O1 (stereo not drawn) [compound 98]
- ED50 [1, 3]: 12.5 mg/kg
- ED50 [2]: 12.5 mg/kg

Compound: CCOCC1CN(c2ccc(OCCC#N)cc2)C(=O)O1 (stereo not drawn) [compound 147]
- ED50 [1, 3]: 1.5 mg/kg
- ED50 [2]: 2.6 mg/kg

Compound: COCC1CN(c2ccc(OCC3CCC(=O)CC3)cc2)C(=O)O1 (stereo not drawn) [compound 188]
- ED50 [1, 3]: 0.3 mg/kg
- ED50 [2]: 0.4 mg/kg

Compound: COCC1CN(c2ccc(OCc3cccc(C#N)c3)cc2)C(=S)O1 (stereo not drawn) [compound 116]
- ED50 [1, 3]: 1.6 mg/kg
- ED50 [2]: 0.95 mg/kg

Compound: O=C(OCC1CN(c2ccc(OCC3CCCCC3)cc2)C(=O)O1)C1CCCCC1 (stereo not drawn) [compound 121]
- ED50 [1, 3]: 11 mg/kg
- ED50 [2]: 8 mg/kg

Compound: CC(C)(C)C(=O)OCC1CN(c2ccc(OCC3CCCC3)cc2)C(=O)O1 (stereo not drawn) [compound 17]
- ED50 [1, 3]: 4.8 mg/kg
- ED50 [2]: 3.6 mg/kg

Compound: CC(C)CCOc1ccc(N2CC(COC(=O)C3CCCCC3)OC2=O)cc1 (stereo not drawn) [compound 129]
- ED50 [1, 3]: 7.5 mg/kg
- ED50 [2]: 12 mg/kg

Compound: CCCCC(=O)OCC1CN(c2ccc(OCCC(C)C)cc2)C(=O)O1 (stereo not drawn) [compound 128]
- ED50 [1, 3]: 7.2 mg/kg
- ED50 [2]: 4.8 mg/kg

Compound: COCC1CN(c2ccc(/C=C\c3ccccc3)cc2)C(=O)O1 (stereo not drawn) [compound 193]
- ED50 [1, 3]: 19 mg/kg
- ED50 [2]: 30 mg/kg

Compound: N#CCCOc1ccc(N2CC(COC(=O)C3CCCCC3)OC2=O)cc1 (stereo not drawn) [compound 8]
- ED50 [1, 3]: 2.2 mg/kg
- ED50 [2]: 7.2 mg/kg

Compound: CCCCCCCCC(=O)OCC1CN(c2ccc(OCc3cccc(Cl)c3)cc2)C(=O)O1 (stereo not drawn) [compound 35]
- ED50 [1, 3]: 19 mg/kg
- ED50 [2]: 6.5 mg/kg

Compound: COCC1CN(c2ccc(OCc3cccc(Cl)c3)cc2)C(=O)O1 (stereo not drawn) [compound 59]
- ED50 [1, 3]: 3.4 mg/kg
- ED50 [2]: 3.1 mg/kg

Compound: COCC1CN(c2cccc(C)c2)C(=O)O1 (stereo not drawn) [compound 45]
- ED50 [1, 3]: 45 mg/kg
- ED50 [2]: 50 mg/kg
